The structures appear in SMILES notation.

For one data set, the target named is hmGlu1 (Homo sapiens, UniProt Q13255). The data set is described as follows: Calcium mobilization mGlu1 assay. It counts as cell-based.
Sequence of hmGlu1 (Q13255 19-1194): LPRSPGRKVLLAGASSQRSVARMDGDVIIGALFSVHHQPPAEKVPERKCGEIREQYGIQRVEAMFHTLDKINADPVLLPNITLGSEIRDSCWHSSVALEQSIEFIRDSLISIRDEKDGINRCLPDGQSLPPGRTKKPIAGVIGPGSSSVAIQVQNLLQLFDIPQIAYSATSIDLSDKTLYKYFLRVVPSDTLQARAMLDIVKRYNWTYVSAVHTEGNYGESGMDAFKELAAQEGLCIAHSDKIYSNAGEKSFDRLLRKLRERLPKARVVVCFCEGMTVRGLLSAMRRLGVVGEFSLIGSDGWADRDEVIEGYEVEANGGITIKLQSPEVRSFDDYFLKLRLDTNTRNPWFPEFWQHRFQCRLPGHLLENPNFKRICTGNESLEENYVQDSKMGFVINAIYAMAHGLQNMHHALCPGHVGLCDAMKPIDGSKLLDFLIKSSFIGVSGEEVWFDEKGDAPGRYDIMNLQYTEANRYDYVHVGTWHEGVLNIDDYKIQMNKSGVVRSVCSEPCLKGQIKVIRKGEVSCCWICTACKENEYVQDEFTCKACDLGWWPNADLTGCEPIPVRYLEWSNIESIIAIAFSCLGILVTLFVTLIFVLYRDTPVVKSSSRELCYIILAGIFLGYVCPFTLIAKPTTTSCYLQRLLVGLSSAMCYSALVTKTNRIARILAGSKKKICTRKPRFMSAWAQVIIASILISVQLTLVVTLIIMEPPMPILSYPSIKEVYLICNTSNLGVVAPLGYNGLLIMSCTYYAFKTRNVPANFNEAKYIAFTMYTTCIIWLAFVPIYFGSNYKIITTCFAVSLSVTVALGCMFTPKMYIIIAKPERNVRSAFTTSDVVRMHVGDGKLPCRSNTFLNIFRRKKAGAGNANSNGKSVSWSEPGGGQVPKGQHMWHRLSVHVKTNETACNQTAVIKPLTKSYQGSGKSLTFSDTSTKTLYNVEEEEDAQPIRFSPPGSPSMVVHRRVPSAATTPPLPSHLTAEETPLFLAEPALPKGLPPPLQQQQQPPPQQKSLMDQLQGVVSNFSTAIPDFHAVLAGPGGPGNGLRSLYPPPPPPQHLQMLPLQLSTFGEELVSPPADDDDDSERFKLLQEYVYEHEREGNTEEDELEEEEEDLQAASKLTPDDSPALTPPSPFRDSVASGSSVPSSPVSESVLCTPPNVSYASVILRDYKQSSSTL
Details: not given
Background: A change in cytosolic calcium serves as a functional read-out for many receptors and channels.
The EC50 is the concentration at which the effect is half-maximal. As to `Cc1ccsc1C(=O)Nc1ccc(N2C(=O)c3ccccc3C2=O)c(Cl)c1` [10d], the EC50 fell in the range of 1500 to 1800 nM.

Still in this data set, the particulars now being: calcium mobilization, average of n=3 in triplicate.
For the compound `CN1CCC[C@H]1C(=O)Nc1ccc(N2C(=O)c3ccccc3C2=O)c(Cl)c1` [10m], the “hmGlu1 EC50” value is “inactive”.

On to `CN1CCC[C@@H]1C(=O)Nc1ccc(N2C(=O)c3ccccc3C2=O)c(Cl)c1` [10l], for which the “hmGlu1 EC50” value was “inactive”.

The same data set, now with this note: calcium mobilization, n=3.
`Cc1ccoc1C(=O)Nc1ccc(N2C(=O)c3ccc(Cl)cc3C2=O)cc1F` [13c]: the “mGlu1 pEC50 (±SEM)” value came to 8.27±0.02.

On to `Cc1cccc2c1C(=O)N(c1ccc(NC(=O)c3ncsc3C)cc1Cl)C2=O` [11i], for which the “mGlu1 pEC50 (±SEM)” value was found to be 6.64±0.14.

Turning to `CN1CCC[C@H]1C(=O)Nc1ccc(N2C(=O)c3ccccc3C2=O)c(Cl)c1` [10m], the “mGlu1 pEC50 (±SEM)” value is on record as above 5.

As to `Cc1cccc2c1C(=O)N(c1ccc(NC(=O)c3nccn3C)cc1Cl)C2=O` [11p], the “mGlu1 pEC50 (±SEM)” value is on record as above 5.

As to `Cc1ocnc1C(=O)Nc1ccc(N2C(=O)c3ccccc3C2=O)c(Cl)c1` [10g], the “mGlu1 pEC50 (±SEM)” value is 5.83±0.02.

`Cc1ocnc1C(=O)Nc1ccc(N2C(=O)c3ccc(Cl)cc3C2=O)c(Cl)c1` [11c]: the “mGlu1 pEC50 (±SEM)” value is 7.26±0.13.

Consider `Cc1cn[nH]c1C(=O)Nc1ccc(N2C(=O)c3ccccc3C2=O)c(Cl)c1` [10k], for which the “mGlu1 pEC50 (±SEM)” value stood at 5.91±0.21.

For the compound `Cc1ccoc1C(=O)Nc1ccc(N2C(=O)c3ccc(F)cc3C2=O)cc1F` [13d], the “mGlu1 pEC50 (±SEM)” value was determined as 7.71±0.06.

On to `Cc1ccoc1C(=O)Nc1ccc(N2C(=O)c3cccc(F)c3C2=O)cc1F` [13e], for which the “mGlu1 pEC50 (±SEM)” value amounted to 7.65±0.07.

Regarding `Cn1ccnc1C(=O)Nc1ccc(N2C(=O)c3cccc(F)c3C2=O)c(Cl)c1` [11t], the “mGlu1 pEC50 (±SEM)” value is listed as above 5.

In the case of `Cc1ccc2c(c1)C(=O)N(c1ccc(NC(=O)c3nccn3C)cc1Cl)C2=O` [11o], the “mGlu1 pEC50 (±SEM)” value is on record as 6.60±0.20.

On to `Cc1cn[nH]c1C(=O)Nc1ccc(N2C(=O)c3cccc(C)c3C2=O)c(Cl)c1` [11w], for which the “mGlu1 pEC50 (±SEM)” value is recorded as 5.36±0.22.

Take `CN1CCC[C@@H]1C(=O)Nc1ccc(N2C(=O)c3ccccc3C2=O)c(Cl)c1` [10l]: the “mGlu1 pEC50 (±SEM)” value was above 5.

Regarding `Cc1scnc1C(=O)Nc1ccc(N2C(=O)c3cccc(Cl)c3C2=O)c(Cl)c1` [11k], the “mGlu1 pEC50 (±SEM)” value amounted to 5.86±0.28.

Take `Cn1ccnc1C(=O)Nc1ccc(N2C(=O)c3ccc(Cl)cc3C2=O)c(Cl)c1` [11q]: the “mGlu1 pEC50 (±SEM)” value worked out at 6.58±0.13.

Take `Cn1ccnc1C(=O)Nc1ccc(N2C(=O)c3cccnc3C2=O)c(Cl)c1` [11u]: the “mGlu1 pEC50 (±SEM)” value is recorded as above 5.

`Cn1ccnc1C(=O)Nc1ccc(N2C(=O)c3cccc(Cl)c3C2=O)c(Cl)c1` [11r]: the “mGlu1 pEC50 (±SEM)” value was above 5.

As to `Cc1[nH]ccc1C(=O)Nc1ccc(N2C(=O)c3ccccc3C2=O)c(Cl)c1` [10b], the “mGlu1 pEC50 (±SEM)” value was above 5.

With `Cc1ncsc1C(=O)Nc1ccc(N2C(=O)c3ccccc3C2=O)c(Cl)c1` [10h], the “mGlu1 pEC50 (±SEM)” value was above 5.

Consider `Cc1ccc2c(c1)C(=O)N(c1ccc(NC(=O)c3ncoc3C)cc1Cl)C2=O` [11a], for which the “mGlu1 pEC50 (±SEM)” value is recorded as 7.38±0.11.

Regarding `Cc1cn[nH]c1C(=O)Nc1ccc(N2C(=O)c3cccc(Cl)c3C2=O)c(Cl)c1` [11y], the “mGlu1 pEC50 (±SEM)” value is given as above 5.

As to `Cc1ccsc1C(=O)Nc1ccc(N2C(=O)c3ccccc3C2=O)c(Cl)c1` [10d], the “mGlu1 pEC50 (±SEM)” value came to 5.72±0.27.

Take `Cc1scnc1C(=O)Nc1ccc(N2C(=O)c3ccc(Cl)cc3C2=O)c(Cl)c1` [11j]: the “mGlu1 pEC50 (±SEM)” value turned out to be 7.30±0.15.

In the case of `Cc1ccc2c(c1)C(=O)N(c1ccc(NC(=O)c3[nH]ncc3C)cc1Cl)C2=O` [11v], the “mGlu1 pEC50 (±SEM)” value is listed as 6.25±0.16.

Turning to `Cc1ncoc1C(=O)Nc1ccc(N2C(=O)c3ccccc3C2=O)c(Cl)c1` [10f], the “mGlu1 pEC50 (±SEM)” value is above 5.

Still in this data set, the particulars now being: effect of a single methyl group.
For the compound `Cc1scnc1C(=O)Nc1ccc(N2C(=O)c3ccccc3C2=O)c(Cl)c1` [10i], the “potency increase relative to the unsubstituted thiazole” value is around 200 fold.

The target of another data set is hmGlu4 (Homo sapiens, UniProt Q14833). Kind of data set: mGlu4 counter-screen. Conditions: selectivity mGlu1 versus mGlu4. The data set is classed as cell-based. (In general: A counterscreen serves to expose hits that act by an unwanted route or on another target.)
Sequence of hmGlu4 (Q14833 33-912): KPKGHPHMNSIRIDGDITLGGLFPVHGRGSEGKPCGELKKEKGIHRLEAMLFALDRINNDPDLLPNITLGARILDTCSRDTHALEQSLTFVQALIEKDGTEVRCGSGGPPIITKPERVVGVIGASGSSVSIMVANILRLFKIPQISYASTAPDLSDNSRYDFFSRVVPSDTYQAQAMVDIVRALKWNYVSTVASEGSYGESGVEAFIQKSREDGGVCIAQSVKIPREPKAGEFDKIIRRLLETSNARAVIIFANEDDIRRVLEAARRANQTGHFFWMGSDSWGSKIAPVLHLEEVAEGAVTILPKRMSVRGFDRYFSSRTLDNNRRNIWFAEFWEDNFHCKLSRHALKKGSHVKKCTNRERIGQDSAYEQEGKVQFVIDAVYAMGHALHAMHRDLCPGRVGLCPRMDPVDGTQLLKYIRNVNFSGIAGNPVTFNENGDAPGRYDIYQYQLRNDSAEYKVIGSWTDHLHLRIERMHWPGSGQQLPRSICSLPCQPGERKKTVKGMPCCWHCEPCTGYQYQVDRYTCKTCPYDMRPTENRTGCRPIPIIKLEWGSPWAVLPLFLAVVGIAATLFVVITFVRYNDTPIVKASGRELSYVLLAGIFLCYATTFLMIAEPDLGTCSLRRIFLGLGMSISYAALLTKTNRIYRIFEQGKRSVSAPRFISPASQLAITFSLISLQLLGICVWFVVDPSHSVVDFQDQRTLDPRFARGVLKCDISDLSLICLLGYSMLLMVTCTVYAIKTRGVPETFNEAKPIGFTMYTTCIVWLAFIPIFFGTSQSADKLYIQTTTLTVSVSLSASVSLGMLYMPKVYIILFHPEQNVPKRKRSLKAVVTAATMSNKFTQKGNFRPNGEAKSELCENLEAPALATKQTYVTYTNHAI
For `Cc1cn[nH]c1C(=O)Nc1ccc(N2C(=O)c3cccc(C)c3C2=O)c(Cl)c1` [11w], the “Fold versus mGlu4” value was above 2 fold.

With `Cc1scnc1C(=O)Nc1ccc(N2C(=O)c3cccc(Cl)c3C2=O)c(Cl)c1` [11k], the “Fold versus mGlu4” value is reported as above 7.3 fold.

For `Cc1scnc1C(=O)Nc1ccc(N2C(=O)c3cccnc3C2=O)c(Cl)c1` [11n], the “Fold versus mGlu4” value was above 52 fold.

On to `Cc1cn[nH]c1C(=O)Nc1ccc(N2C(=O)c3cccc(F)c3C2=O)c(Cl)c1` [11aa], for which the “Fold versus mGlu4” value was above 16 fold.

Tested on in a further data set: not listed separately
Kind of data set: Rat iv PK. It counts as in vivo. The note with it: rat iv clearance versus rat microsomal prediction.
With `Cc1ccc2c(c1)C(=O)N(c1ccc(NC(=O)c3occc3C)c(F)c1)C2=O` [13a], the “in vivo clearance lower than the in vitro predicted value” was 8 times.

With `Cc1ccoc1C(=O)Nc1ccc(N2C(=O)c3cccc(C)c3C2=O)cc1F` [13b], the “in vivo clearance lower than the in vitro predicted value” is 4 times.
